Common to all, as to assay type: functional, cell-based
Data set [1] addresses ATP-dependent translocase ABCB1 (Rattus norvegicus, UniProt P43245). Nature of the data set: TP_TRANSPORTER: Luciferase assay in H35 hepatoma cells.
The target in data set [2] is Multidrug resistance protein 1a (Rattus norvegicus) (UniProt Q6PSM0). Nature of the data set: TP_TRANSPORTER: Western blot, H35 hepatoma cells. On the technique in general: Immunoblotting shows a protein as a band on a membrane.
Data set [3] has the same target. Nature of the data set: TP_TRANSPORTER: Northern blot from H35 hepatoma cells.

Sequence of ATP-dependent translocase ABCB1 (P43245 whole entry): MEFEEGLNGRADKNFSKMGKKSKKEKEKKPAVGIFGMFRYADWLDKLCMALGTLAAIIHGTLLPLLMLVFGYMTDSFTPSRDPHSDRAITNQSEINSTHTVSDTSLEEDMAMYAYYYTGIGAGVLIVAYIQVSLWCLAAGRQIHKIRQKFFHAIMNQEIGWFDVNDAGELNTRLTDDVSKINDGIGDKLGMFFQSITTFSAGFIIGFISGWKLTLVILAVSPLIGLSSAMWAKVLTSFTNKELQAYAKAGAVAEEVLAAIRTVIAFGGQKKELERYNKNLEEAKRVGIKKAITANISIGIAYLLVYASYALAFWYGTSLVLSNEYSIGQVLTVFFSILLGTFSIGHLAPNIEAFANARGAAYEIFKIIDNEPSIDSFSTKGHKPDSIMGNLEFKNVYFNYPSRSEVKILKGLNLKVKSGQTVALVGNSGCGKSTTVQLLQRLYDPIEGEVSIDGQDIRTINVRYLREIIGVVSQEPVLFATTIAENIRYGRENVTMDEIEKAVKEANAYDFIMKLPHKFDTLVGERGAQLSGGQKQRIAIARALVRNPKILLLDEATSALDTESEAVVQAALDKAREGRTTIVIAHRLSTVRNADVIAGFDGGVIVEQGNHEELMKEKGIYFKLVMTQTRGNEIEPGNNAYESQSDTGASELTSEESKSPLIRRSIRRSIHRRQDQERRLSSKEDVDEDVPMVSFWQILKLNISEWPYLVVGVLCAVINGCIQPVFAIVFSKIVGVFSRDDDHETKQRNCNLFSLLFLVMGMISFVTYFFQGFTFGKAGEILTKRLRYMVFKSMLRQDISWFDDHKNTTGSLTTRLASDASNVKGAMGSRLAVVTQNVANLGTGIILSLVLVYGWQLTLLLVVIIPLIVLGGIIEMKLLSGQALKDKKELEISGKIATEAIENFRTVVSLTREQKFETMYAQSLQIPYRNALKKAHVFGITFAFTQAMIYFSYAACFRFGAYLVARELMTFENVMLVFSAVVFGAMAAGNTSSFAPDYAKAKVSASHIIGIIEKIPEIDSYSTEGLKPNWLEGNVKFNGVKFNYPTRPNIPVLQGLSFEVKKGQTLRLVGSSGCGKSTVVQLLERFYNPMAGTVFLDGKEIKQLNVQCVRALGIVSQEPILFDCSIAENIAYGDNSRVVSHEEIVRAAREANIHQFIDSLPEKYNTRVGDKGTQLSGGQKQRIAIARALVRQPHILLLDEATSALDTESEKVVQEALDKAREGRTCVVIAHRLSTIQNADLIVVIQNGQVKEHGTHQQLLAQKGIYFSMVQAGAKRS
Sequence of Multidrug resistance protein 1a (Rattus norvegicus) (Q6PSM0 as listed by the source): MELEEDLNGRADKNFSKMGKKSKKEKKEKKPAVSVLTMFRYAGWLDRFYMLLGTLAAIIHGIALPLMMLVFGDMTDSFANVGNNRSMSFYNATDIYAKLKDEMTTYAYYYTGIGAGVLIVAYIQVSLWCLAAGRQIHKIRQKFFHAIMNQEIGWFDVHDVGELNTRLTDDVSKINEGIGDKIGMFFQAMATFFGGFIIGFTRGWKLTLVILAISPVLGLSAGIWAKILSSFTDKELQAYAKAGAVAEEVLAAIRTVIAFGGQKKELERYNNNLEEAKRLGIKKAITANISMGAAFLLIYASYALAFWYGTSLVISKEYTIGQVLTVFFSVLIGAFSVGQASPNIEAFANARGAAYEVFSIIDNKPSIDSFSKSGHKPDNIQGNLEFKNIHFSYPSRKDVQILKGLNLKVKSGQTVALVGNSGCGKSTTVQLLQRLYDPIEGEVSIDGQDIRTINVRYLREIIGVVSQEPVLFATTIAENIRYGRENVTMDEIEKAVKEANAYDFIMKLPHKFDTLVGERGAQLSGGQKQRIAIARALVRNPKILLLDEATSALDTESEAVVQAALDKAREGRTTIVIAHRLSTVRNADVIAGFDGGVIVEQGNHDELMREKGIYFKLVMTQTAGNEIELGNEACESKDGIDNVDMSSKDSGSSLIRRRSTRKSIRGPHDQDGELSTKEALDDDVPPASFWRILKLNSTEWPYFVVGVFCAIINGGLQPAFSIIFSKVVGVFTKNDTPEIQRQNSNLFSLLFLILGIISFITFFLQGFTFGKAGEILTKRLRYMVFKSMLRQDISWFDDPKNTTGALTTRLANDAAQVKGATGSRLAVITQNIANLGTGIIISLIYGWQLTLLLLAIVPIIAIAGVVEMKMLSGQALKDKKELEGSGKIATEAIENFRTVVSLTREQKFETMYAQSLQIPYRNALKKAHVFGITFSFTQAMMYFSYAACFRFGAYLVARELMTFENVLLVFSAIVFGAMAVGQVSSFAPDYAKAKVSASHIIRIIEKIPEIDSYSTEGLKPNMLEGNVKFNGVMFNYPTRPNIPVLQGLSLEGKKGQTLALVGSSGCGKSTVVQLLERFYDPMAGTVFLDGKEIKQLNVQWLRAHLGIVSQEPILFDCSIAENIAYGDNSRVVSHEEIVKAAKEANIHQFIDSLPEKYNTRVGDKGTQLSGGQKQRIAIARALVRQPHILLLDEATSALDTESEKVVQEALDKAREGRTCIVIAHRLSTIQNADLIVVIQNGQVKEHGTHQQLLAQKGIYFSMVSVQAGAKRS

As for `CCCN1CCC[C@@H]2Cc3n[nH]cc3C[C@H]21` [QUINPIROLE], the Activity result in data set [1] was “inducer [+]”.
Take `CCCN1CCc2cccc3c2[C@H]1Cc1ccc(O)c(O)c1-3.Cl`: the Activity result in data set [1] is “inducer [+]”.
In the case of `CC(C)C[C@H]1C(=O)N2CCC[C@H]2[C@]2(O)O[C@](NC(=O)[C@@H]3C=C4c5cccc6[nH]c(Br)c(c56)C[C@H]4N(C)C3)(C(C)C)C(=O)N12`, the Activity entry in data set [2] and in data set [3] was “inducer [+]” in each case.

The record behind these values is ChEMBL document CHEMBL2073896, “Bromocriptine transcriptionally activates the multidrug resistance gene (pgp2/mdr1b) by a novel pathway” (J Biol Chem, 1997).
